Reference: patent US11970493B2, “Autotaxin inhibitor compounds” (ILDONG PHARMACEUTICAL CO., LTD., priority 2020, dated 2024)
Where a name gives a salt, the structure may show the parent alone.

How the values were obtained:
hATX/ENPP2 = hATX/ENPP2 (Homo sapiens, UniProt Q13822); assay: hATX/ENPP2 biochemical assay using 16:0-LPC as substrate (Amplex Red/choline oxidase/HRP fluorescence); details: hENPP2 2.5 nM, LPC (16:0) substrate
Outline: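 Enzyme preincubated with compounds 15 min at room temperature in 50 mM Tris-HCl pH 8.0, 140 mM NaCl, 5 mM CaCl2, 0.01% Triton X-100. Reaction started with 80 μM LPC (16:0) stock plus Amplex Red/choline oxidase/HRP mix; fluorescence (ex 530/em 590 nm) read kinetically. IC50 from slope between 60 and 70 min.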

[1] = tested on: LPA 18:2 level in mouse plasma; assay: In vitro LPA assay, reduction of LPA 18:2 level in mouse plasma (LC-MS/MS); format: biochemical; details: 2 hr at 37° C., LPA 18:2 reduction
Protocol: (§1) Autotaxin (ATX) plays an important role in lysophosphatidic acid (LPA) signaling. An in vitro LPA assay was conducted to determine IC50 values of the test compounds on reduction of LPA 18:2 level in rat or mouse plasma. This example describes the assay data (IC50 value ranges) of exemplary compounds from LPA assays using mouse and rat plasma. Compound GPLG-1690 was assayed as a reference compound.
(§2) The 10 mM DMSO stock solutions of test compounds and 4-fold serial dilutions of the test compounds were prepared at various concentrations. The diluted solutions of the compounds were diluted with 1×PBS (pH 7.5) buffer. 38 μL of rat or mouse plasma samples were mixed with 2 μL of the diluted solutions of the compounds or 2% DMSO solutions in 96-well plate (final 0.1% DMSO). After incubating for 2 hr at 37° C., 120 μL MeOH containing IS (250 ng/mL of LPA 17:0) was added to each well. Mixture was vortexed for 1 min, and then centrifuged for 30 min (4000 rpm, 4° C.). 100 μL supernatant was transferred to a 96-well plate containing 100 μL pure water and the plate was shaken for 10 min. 5 μL supernatant was injected into LC-MS/MS system. No calibration curve will be prepared for LPA 18:2 and all quantifications were performed based on peak area ratios (LPA 18:2/LPA 17:0). For each concentration of compound LPA data were expressed as percentage of reduction (% reduction) using the formula. 100−[((LPA ratio-LPA ratio in control sample after 0 hr incubation)/(LPA ratio in control sample after 2 hr incubation—LPA ratio in control sample after 0 hr incubation))*100]. Data

[2] = tested on: LPA 18:2 level in rat plasma; assay: In vitro LPA assay, reduction of LPA 18:2 level in rat plasma (LC-MS/MS); format: biochemical; details: 2 hr at 37° C., LPA 18:2 reduction
Protocol: as §1, §2

[3] = Mouse PK study (IV and PO); format: in vivo; details: male, C57BL/6, mouse, plasma, male C57BL/6 mice; for AUC(0-inf): IV 2 mg/kg and PO 10 mg/kg study; for bioavailability / Cmax: po, 10 mg/kg; for bioavailability: IV 2 mg/kg and PO 10 mg/kg, read-out: F % (bioavailability); for Cmax: PO group 10 mg/kg
Protocol: This example describes the pharmacokinetic (PK) data obtained for various compounds of the present disclosure, from studies using mice. The following PK parameters were calculated: • Bioavailability (F %) were calculated using the linear/log trapezoidal rule • Peak plasma concentrations (Cmax (ng/mL)) were taken directly from the plasma concentration vs. time profiles for the PO group • Area under the curve e.g., the area under the concentration curve from time 0 to infinity (AUC0-inf(ng*h/mL)). Experimental Procedures
After intravenous (IV) and oral (PO) administration at 2 mg/kg and 10 mg/kg to male C57BL/6 mice, respectively, the blood samples were collected at the designed sampling time points. All blood samples were transferred into pre-chilled commercial polyethylene microcentrifuge tubes containing K2-EDTA as an anticoagulant. Samples were processed for plasma by centrifugation. Plasma samples was transferred into polypropylene tubes pre-chilled on dry ice and then quickly frozen over dry ice and kept at −70±10° C. until LC-MS/MS analysis. Mice plasma samples were analyzed using qualified bioanalytical methods based on protein precipitation followed by LC-MS/MS analysis. Individual plasma concentration data of each compound was subjected to noncompartmental pharmacokinetic analysis using Phoenix WinNonlin™. Nominal doses were used for pharmacokinetic parameters calculation.

Structure (SMILES)	IC50 (hATX/ENPP2) [nM]	IC50 [1] [nM]	IC50 [2] [nM]	AUC(0-inf) [3] [ng·h/mL]	bioavailability [3] [%]	Cmax [3] [ng/mL]
CCc1nc2ccc(-c3cnc(N4CCN(C(=O)C5CN(C)C5)CC4)nc3)cn2c1N(C)c1nc(-c2ccc(F)cc2)c(C#N)s1 [79 (hydrochloride salt)]	≤ 20	200 to 800	≤ 200			
CCc1nc2ccc(-c3cnc(N4CCN(C(=O)C5(CO)CC5)CC4)nc3)cn2c1N(C)c1nc(-c2ccc(F)cc2)c(C#N)s1 [Compound 10, 2-((2-ethyl-6-(2-(4-(1-(hydroxymethyl)cyclopropane-1-carbonyl)piperazin-1-yl)pyrimidin-5-yl)imidazo[1,2-a]pyridin-3-yl)(methyl)amino)-4-(4-fluorophenyl)thiazole-5-carbonitrile]	≤ 20	200 to 800	≤ 200	26700	28	4950
CCc1nc2ccc(-c3cnc(N4CC(NC5(CO)CC5)C4)nc3)cn2c1N(C)c1nc(-c2ccc(F)cc2)c(C#N)s1 [Compound 30, 2-((2-ethyl-6-(2-(3-((1-(hydroxymethyl)cyclopropyl)amino)azetidin-1-yl)pyrimidin-5-yl)imidazo[1,2-a]pyridin-3-yl)(methyl)amino)-4-(4-fluorophenyl)thiazole-5-carbonitrile]	20 to 200	200 to 800	200 to 800	21700	42	4310
CCc1nc2ccc(-c3cnc(N4CCN(C(=O)N5CCCC5)CC4)nc3)cn2c1N(C)c1nc(-c2ccc(F)cc2)c(C#N)s1 [Compound 42, 2-((2-ethyl-6-(2-(4-(pyrrolidine-1-carbonyl)piperazin-1-yl)pyrimidin-5-yl)imidazo[1,2-a]pyridin-3-yl)(methyl)amino)-4-(4-fluorophenyl)thiazole-5-carbonitrile]	≤ 20	200 to 800	200 to 800			
CCc1nc2ccc(-c3cnc(N4CCN(C(=O)N5CC[C@@H](O)C5)CC4)nc3)cn2c1N(C)c1nc(-c2ccc(F)cc2)c(C#N)s1 [Compound 43, (R)-2-((2-ethyl-6-(2-(4-(3-hydroxypyrrolidine-1-carbonyl)piperazin-1-yl)pyrimidin-5-yl)imidazo[1,2-a]pyridin-3-yl)(methyl)amino)-4-(4-fluorophenyl)thiazole-5-carbonitrile]	≤ 20	≤ 200	≤ 200	31000	39.5	5170
CCc1nc2ccc(-c3cnc(N4CCN(C(=O)N5CC[C@H](O)C5)CC4)nc3)cn2c1N(C)c1nc(-c2ccc(F)cc2)c(C#N)s1 [Compound 44, (S)-2-((2-ethyl-6-(2-(4-(3-hydroxypyrrolidine-1-carbonyl)piperazin-1-yl)pyrimidin-5-yl)imidazo[1,2-a]pyridin-3-yl)(methyl)amino)-4-(4-fluorophenvl)thiazole-5-carbonitrile]	≤ 20	200 to 800	200 to 800	25000	33.4	4730
CCc1nc2ccc(-c3ccc(N4CCN(C(=O)N5CCCC5)CC4)nc3)cn2c1N(C)c1nc(-c2ccc(F)cc2)c(C#N)s1 [Compound 85, 2-((2-ethyl-6-(6-(4-(pyrrolidine-1-carbonyl)piperazin-1-yl)pyridin-3-yl)imidazo[1,2-a]pyridin-3-yl)(methyl)amino)-4-(4-fluorophenyl) thiazole-5-carbonitrile]	20 to 200	200 to 800	≤ 200			
CCc1nc2ccc(-c3ccc(N4CCN(C(=O)C5CN(C)C5)CC4)nc3)cn2c1N(C)c1nc(-c2ccc(F)cc2)c(C#N)s1 [Compound 86 hydrochloride, 2-((2-ethyl-6-(6-(4-(1-methylazetidine-3-carbonyl)piperazin-1-yl)pyridin-3-yl)imidazo[1,2-a]pyridin-3-yl)(methyl)amino)-4-(4-fluorophenyl)thiazole-5-carbonitrile hydrochloride]		> 800	200 to 800			
CCc1nc2ccc(-c3ccc(C(=O)N4CCCC4)nc3)cn2c1N(C)c1nc(-c2ccc(F)cc2)c(C#N)s1 [Compound 87, 2-((2-ethyl-6-(6-(pyrrolidine-1-carbonyl)pyridin-3-yl)imidazo[1,2-a]pyridin-3-yl)(methyl)amino)-4-(4-fluorophenyl)thiazole-5-carbonitrile]	20 to 200	200 to 800	200 to 800			
CCc1nc2ccc(-c3ccc(N4CCN(C(=O)C5(CO)CC5)CC4)nc3)cn2c1N(C)c1nc(-c2ccc(F)cc2)c(C#N)s1 [Compound 93, 2-((2-ethyl-6-(6-(4-(1-(hydroxylmethyl)cyclopropane-1-carbonyl)piperazin-1-yl)pyridin-3-yl)imidazo[1,2-a]pyridin-3-yl) (methyl)amino)-4-(4-fluorophenyl)thiazole-5-carbonitrile]	≤ 20	200 to 800	≤ 200			
CCc1nc2ccc(-c3ccc(N4CC(NC5(CO)CC5)C4)nc3)cn2c1N(C)c1nc(-c2ccc(F)cc2)c(C#N)s1 [Compound 109, 2-((2-ethyl-6-(6-(3-((1-(hydroxymethyl)cyclopropyl)amino)azetidin-1-yl)pyridin-3-yl)imidazo[1,2-a]pyridin-3-yl)(methyl)amino)-4-(4-fluorophenyl)thiazole-5-carbonitrile]	20 to 200	200 to 800	≤ 200			
CCc1nc2ccc(-c3ccc(N4CCC(C(=O)N5CCNCC5)CC4)nc3)cn2c1N(C)c1nc(-c2ccc(F)cc2)c(C#N)s1 [Compound 118, 2-((2-ethyl-6-(6-(4-(piperazine-1-carbonyl)piperidin-1-yl)pyridin-3-yl)imidazo[1,2-a]pyridin-3-yl) (methyl)amino)-4-(4-fluorophenyl)thiazole-5-carbonitrile]	≤ 20	200 to 800	≤ 200			
CCc1nc2ccc(-c3ccc(N4CCC(C(=O)N5CCCCC5)CC4)nc3)cn2c1N(C)c1nc(-c2ccc(F)cc2)c(C#N)s1 [Compound 121, 2-((2-ethyl-6-(6-(4-(piperidine-1-carbonyl)piperidin-1-yl)pyridin-3-yl)imidazo[1,2-a]pyridin-3-yl)(methyl)amino)-4-(4-fluorophenyl)thiazole-5-carbonitrile]	20 to 200	200 to 800	≤ 200			
CCc1nc2ccc(-c3cnc(N4CC(C(=O)N5CCC5)C4)nc3)cn2c1N(C)c1nc(-c2ccc(F)cc2)c(C#N)s1 [Compound 125, 2-((6-(2-(3-(azetidine-1-carbonyl)azetidin-1-yl)pyrimidin-5-yl)-2-ethylimidazo[1,2-a]pyridin-3-yl)(methyl)amino)-4-(4-fluorophenyl)thiazole-5-carbonitrile]	20 to 200	200 to 800	≤ 200			
CCc1nc2ccc(-c3cnc(N4CCC(C(=O)N5CCOCC5)CC4)nc3)cn2c1N(C)c1nc(-c2ccc(F)cc2)c(C#N)s1 [Compound 127, 2-((2-ethyl-6-(2-(4-(morpholine-4-carbonyl)piperidin-1-yl)pyrimidin-5-yl)imidazo [1,2-a]pyridin-3-yl)(methyl)amino)-4-(4-fluorophenyl)thiazole-5-carbonitrile]	≤ 20	200 to 800	≤ 200			
CCc1nc2c(C)cc(N3CCN(CC(=O)N4CC(O)C4)CC3)cn2c1N(C)c1nc(-c2ccc(F)cc2)c(C#N)s1 [GPLG-1690, Ziritaxestat, reference compound]		> 800	> 800			
